Patent US8563706B2, “Efficient cell culture system for hepatitis C virus genotype 1A and 1B” (priority 2007, dated 2013)

Experiments:
[1] = system: JFH1-based recombinants of genotypes 1a, 1b, 2a, 2b, and 6a; type: cell-based, hepatitis C virus
[2] = system: JFH1 cultures or cultures with genotype 1a (H77), 1b (Con1) or 2a (J6) JFH1-based recombinants; conditions: previous studies; cited from earlier work
[3] = system: J6/JFH; conditions: previous studies; cited from earlier work

Compound | effect of treatment on infected cells and supernatant HCV RNA titers (in words) [1] | production of infectious virus (in words) [2] | replication of J6/JFH (in words) [3] | decrease in supernatant HCV RNA titers [1] [log] | decrease in the number of infected cells [1] [%]
NC(=O)c1ncn([C@@H]2O[C@H](CO)[C@@H](O)[C@H]2O)n1 [ribavirin] | no apparent effect | did not decrease production of infectious virus |  |  | 
interferon-α2b |  |  | decreased replication | ~2 | > 60
NC12CC3CC(CC(C3)C1)C2 [amantadine] | no apparent effect | did not decrease production of infectious virus |  |  | 
